{
  "source": "patent EP0004358A1",
  "about": "“N-oxacyclylalkyl piperidines, process for their preparation, pharmaceutical compositions containing these compounds” (priority 1978, dated 1979)",
  "key": {"[1]": {"system": "Totenkopf-Aeffchen (squirrel monkeys)", "test": "Conditioned shock avoidance (Skinner cage) in squirrel monkeys", "assay_type": "in vivo", "conditions": "oral in 0,9%iger wässeriger Kochsalzlösung, doses down to 2,5 mg/kg/Tag; four-hour session", "excerpt": "In einem anderen Test werden Totenkopf-Aeffchen (squirrel monkeys) durch Training dazugebracht, den Hebel in einem solchen Skinner-Käfig zu drücken, um dem elektrischen Schock, der auf die Füsse durch das Bodengitter verabreicht wird, auszuweichen. Jeder Tastendruck verschiebt den elektrischen Schock um 20 Sekunden. Versäumt der Affe innerhalb von 20 Sekunden die Taste zu drücken, so wird er kurze (0,5 Sekunden) elektrische Schocks alle 20 Sekunden bis zu seinem nächsten Tastendruck erleiden. Unter Kontrollbedingungen drücken die Affen den Hebel mit einer verhältnismässig stetigen Geschwindigkeit, so dass sie selten mehr als 6 Schocks während einer vierstündigen Versuchsperiode erhalten. Man bestimmt die Anzahl der Vermeidungsreaktionen sowie die Anzahl der erhaltenen Schocks. […] Der Wirkstoff wird in niedrigen Dosen bis hinunter zu 2,5 mg/kg/Tag verabreicht. Die Untersuchung zwecks Gewinnung von Kontrollwerten wird unter Verwendung von Kochsalzlösung allein, ein Tag vor der Untersuchung der Wirkstoffe, durchgeführt."}, "männlichen Albinoratten": {"system": "männlichen Albinoratten", "test": "Conditioned shock avoidance (lever pressing) in rats", "assay_type": "in vivo, Ratte", "conditions": "for Schockvermeidungsreaktion der Ratte: doses down to 2,5 mg/kg/Tag", "excerpt": "Die Verbindungen der Erfindung zeigen wertvolle pharmakologische, z.B. stimulierende und antidepressive Wirkungen. Diese können in Tierversuchen, vorzugsweise an Säugetieren, wie Ratten oder Affen, als Testobjekte nachgewiesen werden. Die Verbindungen der Erfindung können ihnen enteral, z.B. oral, oder parenteral, z.B. subkutan, intraperitoneal oder intravenös, z.B. in Form von wässerigen Lösungen oder Stärke enthaltenden Suspensionen, verabreicht werden. Die verwendete Dosis kann in einem Bereich von ungefähr zwischen 0,1 und 100 mg/kg/Tag, vorzugsweise ungefähr 1 und 50 mg/kg/Tag, insbesondere ungefähr 5 und 25 mg/kg/Tag liegen. Die genannten stimulierenden und antidepressiven Wirkungen können z.B. an männlichen Albinoratten beobachtet werden. Die Tiere haben freien Zugang zu Futter und Wasser, mit Ausnahme der Versuchsdauer. Die Untersuchung des Tierverhaltens wird in normierten, schallisolierten Konditionierungskammern, welche einen Schalthebel enthalten, durchgeführt. Gemäss dem Test werden die Ratten durch das Bodengitter der Kammer elektrischen Schocks ausgesetzt. Der Hebel ist an eine programmierte Einrichtung, welche die Abgabe von elektrischen Schocks reguliert, angeschlossen. Die Anzahl der Betätigung des Hebels und die Anzahl der erlittenen Schocks werden registriert. Die Ratten werden vorher dazu trainiert, diesem elektrischen Impuls durch Drücken der Taste auszuweichen. Dann wird der Apparat so eingestellt, dass jede Hebelbetätigung den Schockeintritt um 30 Sekunden verschiebt. Vergisst das Tier den Hebel innerhalb dieses Zeitintervalls zu drücken, so werden alle 15 Sekunden kurze elektrische Schocks abgegeben, bis das Tier den Hebel wieder betätigt. Vor jeder Testperiode werden die Ratten, um sich zu erwärmen, 15 Minuten in den Testkammern gehalten. Während dieser Zeit wird die Anzahl der Hebelbetätigungen nicht registriert. Unmittelbar nach dieser Periode werden die Test-Verbindungen entweder in Kochsalzlösung oder in 3Xiger Maisstärke-Suspension in 5%igem wässerigem Polyäthylenglykol-400, welches auf 10 ml einen Tropfen Polyäthylen-20- sorbitanmonooleat enthält, entweder oral oder intraperitoneal vorabreicht. […] Diese erfindungsgemässe Verbindung zeigt einen einzigartigen Wirkungsmechanismus."}, "biogener Amine": {"system": "biogener Amine", "test": "Uptake inhibition of biogenic amines (statement, no method)"}, "antihistaminische": {"system": "antihistaminische", "test": "Antihistaminic action (statement, no method)"}, "anticholinergische": {"system": "anticholinergische", "test": "Anticholinergic action (statement, no method)"}, "[2]": {"system": "präsynaptischerc(-noradrenergischer Blocker)", "test": "Presynaptic alpha-noradrenergic blockade (statement, no method)", "conditions": "compared in kind with Mianserin"}},
  "note": "Where a name gives a salt, the structure may show the parent alone.",
  "data": [
    {"smiles": "O=C1NCCN1C1CCN(CC[C@H]2COc3ccccc3O2)CC1", "note": "[1-(S)-Hydrobromid]", "values": [
      {"measurement": "Anzahl der erlittenen Schocks", "setting": "[1]", "value": "positive Aenderungen"},
      {"measurement": "Ausmass der Vermeidungsreaktionen", "setting": "[1]", "value": "positive Aenderungen"},
      {"measurement": "Schockvermeidungsreaktion der Ratte", "setting": "männlichen Albinoratten; intraperitoneal", "value": "erhöht signifikant"}
    ]},
    {"smiles": "COC(=O)C(c1ccccc1)C1CCCCN1", "note": "(stereo not shown) [Methylphenidat, reference compound]", "values": [
      {"measurement": "Zunahme der Schockvermeidungsreaktion", "setting": "männlichen Albinoratten; 5 mg/kg/Tag, intraperitoneal", "value": "Zunahme der Schockvermeidungsreaktion"}
    ]},
    {"smiles": "O=C1NCCN1C1CCN(CCC2COc3ccccc3O2)CC1", "note": "(racemic) [1-[1-[2-(1,4-Benzodioxan-2-yl)-äthyl]-4-piperidyl]-2-imidazolidinon]", "values": [
      {"measurement": "Aufnahmehemmer biogener Amine", "setting": "biogener Amine", "value": "kein Aufnahmehemmer biogener Amine"},
      {"measurement": "antihistaminische Wirkung", "setting": "antihistaminische", "value": "noch eine antihistaminische Wirkung"},
      {"measurement": "anticholinergische Wirkung", "setting": "anticholinergische", "value": "weder eine anticholinergische"},
      {"measurement": "präsynaptischerc(-noradrenergischer Blocker)", "setting": "[2]", "value": "kein präsynaptischerc(-noradrenergischer Blocker"},
      {"measurement": "Zunahme der Schockvermeidungsreaktion, comparison with Methylphenidat", "setting": "männlichen Albinoratten; compared with 5 mg/kg/Tag Methylphenidat intraperitoneal", "value": "vorteilhaft"},
      {"measurement": "Schockvermeidungsreaktion der Ratte", "setting": "männlichen Albinoratten; intraperitoneal", "value": "erhöht signifikant"}
    ]}
  ]
}
